In patent publication US20250179066A1, “ZWITTERIONIC ANTIBACTERIAL COMPOUNDS” (Hoffmann-La Roche Inc., priority 2022, published 2025) one finds IC90 data, which are given here for 12 molecules.

Where a name gives a salt, the structure may show the parent alone.

Broadly, the IC90 is the concentration at which the effect reaches the 90% level.

In one experiment the test system is Acinetobacter baumannii ATCC17961. Nature of the experiment: Antimicrobial susceptibility testing: 90% growth inhibitory concentration (IC90) determination. It counts as cell-based. Conditions: 90% growth inhibitory concentration against Acinetobacter baumannii ATCC17961, Iso-Sensitest broth, OD 600 nm over 16 h; read-out: ATCC 17961 IC90. In a few lines: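 Twofold serial dilutions (e.g. 10 to 0.0195 μM final) in Iso-Sensitest broth inoculated at ~5×10^5 CFU/mL, incubated at 35±2° C. OD600 read every minute for 16 h; IC90 is the concentration inhibiting 90% of growth during logarithmic phase.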
`Cn1c(-c2cn(-c3ccc4c(ccn4CC(N)=O)n3)nc2C(F)(F)F)cnc1C(=O)Nc1ccc(C(=O)N2CCN(C(=O)C3CC[N+](CC(=O)O)(CC4CNC4)CC3)CC2)c(Cl)c1` (stereo not drawn) [Example 199, cis-2-[4-[4-[4-[[5-[1-[1-(2-amino-2-keto-ethyl)pyrrolo[3,2-b]pyridin-5-yl]-3-(trifluoromethyl)pyrazol-4-yl]-1-methyl-imidazole-2-carbonyl]amino]-2-chloro-benzoyl]piperazine-1-carbonyl]-1-(azetidin-3-ylmethyl)piperidin-1-ium-1-yl]acetic acid. 1:1 2,2,2-trifluoroacetate]: the IC90 was 308 nM.

On to `Cn1c(-c2cn(-c3ccc(N)cn3)nc2C(F)(F)F)cnc1C(=O)Nc1ccc(C(=O)N2CCN(C(=O)CCC[N+](CCCCN)(CCCCN)CC(=O)O)CC2)c(Cl)c1` [Example 20, bis(4-aminobutyl)-[4-[4-[4-[[5-[1-(5-amino-2-pyridyl)-3-(trifluoromethyl)pyrazol-4-yl]-1-methyl-imidazole-2-carbonyl]amino]-2-chloro-benzoyl]piperazino]-4-keto-butyl]-(carboxymethyl)ammonium. 1:1 2,2,2-trifluoroacetic acid. 1:1 2,2,2-trifluoroacetate], for which the IC90 came to 300 nM.

Staying with this experiment, now noted: Acinetobacter baumannii, ATCC17961, 16 h, 90% growth inhibitory concentration against Acinetobacter baumannii ATCC17961, Iso-Sensitest broth, OD 600 nm over 16 h; read-out: ATCC 17961 IC90.
With `Cn1c(-c2cn(-c3cc4[nH]ncc4cn3)nc2C(F)(F)F)cnc1C(=O)Nc1ccc(C(=O)N2CCN(C(=O)[C@H]3CC[N@+](CC(=O)O)(CC4CNC4)CC3)CC2)c(Cl)c1` [Example 173, cis-2-[1-(azetidin-3-ylmethyl)-4-[4-[2-chloro-4-[[1-methyl-5-[1-(1H-pyrazolo[4,3-c]pyridin-6-yl)-3-(trifluoromethyl)pyrazol-4-yl]imidazole-2-carbonyl]amino]benzoyl]piperazine-1-carbonyl]piperidin-1-ium-1-yl]acetic acid. 1:1 2,2,2-trifluoroacetate], the IC90 is 352 nM.

Regarding `CN1CCN(C(=O)c2c[nH]c3cc(-n4cc(-c5cnc(C(=O)Nc6ccc(C(=O)N7CCN(C(=O)[C@H]8CC[N@+](CC(=O)O)(CC9CNC9)CC8)CC7)c(Cl)c6)n5C)c(C(F)(F)F)n4)ncc23)CC1` [Example 148, cis-2-[1-(azetidin-3-ylmethyl)-4-[4-[2-chloro-4-[[1-methyl-5-[1-[3-(4-methylpiperazine-1-carbonyl)-1H-pyrrolo[3,2-c]pyridin-6-yl]-3-(trifluoromethyl)pyrazol-4-yl]imidazole-2-carbonyl]amino]benzoyl]piperazine-1-carbonyl]piperidin-1-ium-1-yl]acetic acid. 1:1 2,2,2-trifluoroacetate], the IC90 turned out to be 349 nM.

`Cn1c(-c2cn(-c3ccc4[nH]c(C[C@H](O)CO)cc4n3)nc2C(F)(F)F)cnc1C(=O)Nc1ccc(C(=O)N2CCN(C(=O)[C@H]3CC[N@+](CC(=O)O)(CC4CNC4)CC3)CC2)c(Cl)c1` [Example 160, cis-2-[1-(azetidin-3-ylmethyl)-4-[4-[2-chloro-4-[[5-[1-[2-[(2S)-2,3-dihydroxypropyl]-1H-pyrrolo[3,2-b]pyridin-5-yl]-3-(trifluoromethyl)pyrazol-4-yl]-1-methyl-imidazole-2-carbonyl]amino]benzoyl]piperazine-1-carbonyl]piperidin-1-ium-1-yl]acetic acid;formate]: the 90% effect concentration (IC90) is 474 nM.

As for `CNc1ccc(-n2cc(-c3cnc(C(=O)Nc4ccc(C(=O)N5CCN(C(=O)[C@H]6CC[N@+](CC(=O)O)(CC7CNC7)CC6)CC5)c(C)c4)n3C)c(C(F)(F)F)n2)c(F)c1` [Example 107, cis-2-[1-(azetidin-3-ylmethyl)-4-[4-[4-[[5-[1-[2-fluoro-4-(methylamino)phenyl]-3-(trifluoromethyl)pyrazol-4-yl]-1-methyl-imidazole-2-carbonyl]amino]-2-methyl-benzoyl]piperazine-1-carbonyl]piperidin-1-ium-1-yl]acetic acid;2,2,2-trifluoroacetate], the IC90 came to 175 nM.

For `Cn1c(-c2cn(-c3nc4ccccc4s3)nc2C(F)(F)F)cnc1C(=O)Nc1ccc(C(=O)N2CCN(C(=O)C3CC[N+](CC(=O)O)(CC4CNC4)CC3)CC2)c(Cl)c1` (stereo not drawn) [Example 80, 2-[1-(azetidin-3-ylmethyl)-4-[4-[4-[[5-[1-(1,3-benzothiazol-2-yl)-3-(trifluoromethyl)pyrazol-4-yl]-1-methyl-imidazole-2-carbonyl]amino]-2-chloro-benzoyl]piperazine-1-carbonyl]piperidin-1-ium-1-yl]acetic acid. 1:1 formate], the 90% effect concentration (IC90) is 1200 nM.

Take `CNc1ccc(-n2cc(-c3cnc(C(=O)Nc4ccc(C(=O)N5CCN(C(=O)[C@H]6CC[N@+](CC(=O)O)(CC7CNC7)CC6)CC5)c(F)c4)n3C)c(C(F)(F)F)n2)c(F)c1` [Example 108, cis-2-[1-(azetidin-3-ylmethyl)-4-[4-[2-fluoro-4-[[5-[1-[2-fluoro-4-(methylamino)phenyl]-3-(trifluoromethyl)pyrazol-4-yl]-1-methyl-imidazole-2-carbonyl]amino]benzoyl]piperazine-1-carbonyl]piperidin-1-ium-1-yl]acetic acid; 2,2,2-trifluoroacetate]: the IC90 was 58.7 nM.

`Cn1c(-c2cn(-c3ccc4c(ccn4CC#N)n3)nc2C(F)(F)F)cnc1C(=O)Nc1ccc(C(=O)N2CCN(C(=O)[C@H]3CC[N@+](CC(=O)O)(CC4CNC4)CC3)CC2)c(Cl)c1` [Example 197, cis-2-[1-(azetidin-3-ylmethyl)-4-[4-[2-chloro-4-[[5-[1-[1-(cyanomethyl)pyrrolo[3,2-b]pyridin-5-yl]-3-(trifluoromethyl)pyrazol-4-yl]-1-methyl-imidazole-2-carbonyl]amino]benzoyl]piperazine-1-carbonyl]piperidin-1-ium-1-yl]acetic acid. 1:1 2,2,2-trifluoroacetate]: the IC90 came out at 171 nM.

In the case of `Cn1c(-c2cn(-c3cc4cc(CO)[nH]c4cn3)nc2C(F)(F)F)cnc1C(=O)Nc1ccc(C(=O)N2CCN(C(=O)[C@H]3CC[N@+](CC(=O)O)(CC4CNC4)CC3)CC2)c(Cl)c1` [Example 191, cis-2-[1-(azetidin-3-ylmethyl)-4-[4-[2-chloro-4-[[1-methyl-5-[1-(2-methylol-1H-pyrrolo[2,3-c]pyridin-5-yl)-3-(trifluoromethyl)pyrazol-4-yl]imidazole-2-carbonyl]amino]benzoyl]piperazine-1-carbonyl]piperidin-1-ium-1-yl]acetic acid. 1:1 2,2,2-trifluoroacetic acid], the IC90 was 315 nM.

Regarding `Cn1c(-c2cn(-c3ccc(NC4CC4)cn3)nc2C(F)(F)F)cnc1C(=O)Nc1ccc(C(=O)N2CCN(C(=O)C3CC[N+](CC(=O)O)(CC4CNC4)CC3)CC2)c(Cl)c1` (stereo not drawn) [Example 44, 2-[1-(azetidin-3-ylmethyl)-4-[4-[2-chloro-4-[[5-[1-[5-(cyclopropylamino)-2-pyridyl]-3-(trifluoromethyl)pyrazol-4-yl]-1-methyl-imidazole-2-carbonyl]amino]benzoyl]piperazine-1-carbonyl]piperidin-1-ium-1-yl]acetic acid. 1:1 formate], the concentration for an effect of 90% (IC90) amounted to 490 nM.

For `Cn1c(-c2cn(-c3ccc(N)cc3F)nc2C(F)(F)F)cnc1C(=O)Nc1ccc(C(=O)N2CCN(C(=O)N3CC[N+](CCCN)(CC(=O)O)CC3)CC2)c(Cl)c1` [Example 141, 2-[4-[4-[4-[[5-[1-(4-amino-2-fluoro-phenyl)-3-(trifluoromethyl)pyrazol-4-yl]-1-methyl-imidazole-2-carbonyl]amino]-2-chloro-benzoyl]piperazine-1-carbonyl]-1-(3-aminopropyl)piperazin-1-ium-1-yl]acetic acid. 1:1 2,2,2-trifluoroacetate], the IC90 was found to be 242 nM.
